# According to patent publication US6498183B1, “Substituted indole sulfonamides as anitviral agents” (Bayer Aktiengesellschaft, priority 1999, dated 2002):
# What was measured:
# [1] = tested on: human cytomegalovirus (HCMV); experiment: anti-HCMV screening test (cytopathogenic effect) in HELF cell cultures; format: cell-based; details: Human betaherpesvirus 5; HCMV-infected HELF cells, 96-well plates; concentration giving 50% inhibition of virus activity (CPE, Neutral Red)
# Method: The anti-HCMV action was determined in a screening test system in 96-well microtitre plates with the assistance of human embryonic lung fibroblasts (HELF) cell cultures. The affect of these substances on the extent of the cytopathogenic effect was determined by comparison with the reference substance ganciclovir (Cymevene^R sodium), a clinically approved anti-HCMV chemotherapeutic agent (EC50, corresponding to the effective concentration at which a 50% inhibition of virus activity is achieved).
# The substances dissolved (50 mM) in DMSO (dimethyl sulphoxide) are investigated on microtitre plates (96-well) in duplicate determinations (4 substances/plate). Toxic and cytostatic effects of the substances are also detected thereby (CC50, corresponding to the concentration at which half the cells are destroyed owing to administration of the substance). […]
# After this time, the cell lawn in the virus controls free of substance, starting from 50-100 infectious centres, is completely destroyed by the cytopathogenic effect of the HCMV (100% CPE). After staining with Neutral Red and fixing with formalin/methanol, the plates are evaluated using a projection microscope (plaque viewer).
# [2] = toxic and cytostatic effects on HELF cells in the anti-HCMV screening test; format: cell-based; details: human, concentration at which half the cells are destroyed
# Method: The substances dissolved (50 mM) in DMSO (dimethyl sulphoxide) are investigated on microtitre plates (96-well) in duplicate determinations (4 substances/plate). Toxic and cytostatic effects of the substances are also detected thereby (CC50, corresponding to the concentration at which half the cells are destroyed owing to administration of the substance). After the appropriate substance dilutions (1:2) on the microtitre plate, a suspension of 50-100 HCMV-infected HELF cells and […] uninfected HELF cells in Eagle's MEM with 10% fetal calf serum are put in each well, and the plates are incubated at 37° C. in a CO2 incubator for several days. After this time, the cell lawn in the virus controls free of substance, starting from 50-100 infectious centres, is completely destroyed by the cytopathogenic effect of the HCMV (100% CPE). After staining with Neutral Red and fixing with formalin/methanol, the plates are evaluated using a projection microscope (plaque viewer).
structure (smiles),measurement,setting,value
"CCn1ccc2cc(S(=O)(=O)Nc3cccc(NC(=O)C(C)(C)CF)c3)ccc21 [Example 1, N-[(N-Ethylindole)-5-sulphonyl]-N′-(3-fluoro-2,2-dimethylpropanoyl)-1,3-diamino-benzene]",EC50,[1],0.055 µM
same,CC50,[2],15.6 µM
"CC(=O)n1ccc2cc(S(=O)(=O)Nc3ccc(C(=O)NC(C)(C)C)cc3)ccc21 [Example 2, 4-[N-Acetylindole-5-sulphonylamino]-N-(tert-butyl)benzamide]",EC50,[1],0.39 µM
same,CC50,[2],86 µM
